Data set [1] has as its target T1, Macrophage migration inhibitory factor (Homo sapiens, UniProt P14174).
T1 sequence (P14174 whole entry): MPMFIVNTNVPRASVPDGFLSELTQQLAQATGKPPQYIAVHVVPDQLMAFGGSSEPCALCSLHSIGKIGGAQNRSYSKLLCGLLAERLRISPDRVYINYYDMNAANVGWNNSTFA
The experiment in a line: Inhibition of C-terminal His-tagged recombinant human MIF tautomerase activity expressed in Escherichia coli BL21 using 4-hydroxyphenyl pyruvic acid as substrate preincubated for 15 mins followed by substrate addition and measured for 10 mins in presence of 0.5 mM EDTA by UV absorbance analysis.

The target of data set [2] is T1, Macrophage migration inhibitory factor. The experiment in a line: Inhibition of C-terminal His-tagged recombinant human MIF tautomerase activity expressed in Escherichia coli BL21 using 4-hydroxyphenyl pyruvic acid as substrate preincubated for 15 mins followed by substrate addition and measured for 10 mins in presence of 0.5 mM EDTA by UV absorbance based Cheng-Prusoff equation analysis.

Data set [3] is described as follows: Solubility of compound at >=50 uM. Format: physicochemical.
Data set [4] in a line: Solubility of compound in pH 7.4 PBS buffer by shake-flask method. Format: physicochemical.
The target of data set [5] is T1, Macrophage migration inhibitory factor. The experiment in a line: Binding affinity to RED-Tris-NTA-labelled C-terminal His-tagged recombinant human MIF tautomerase activity expressed in Escherichia coli BL21 by microscale thermophoresis assay. Background: MST reads how a fluorescent partner responds to local heating, with and without ligand.
For data set [6] the target is unchanged. The data set is described as follows: Inhibition of C-terminal His-tagged recombinant human MIF tautomerase activity expressed in Escherichia coli BL21 using 4-hydroxyphenyl pyruvic acid as substrate preincubated for 15 mins followed by substrate addition and measured for 10 mins in absence of EDTA by UV absorbance based Cheng-Prusoff equation analysis.
Data set [7] has the same target. The experiment in a line: Inhibition of recombinant human MIF tautomerase activity expressed in Escherichia coli using 4-hydroxyphenyl pyruvic acid as substrate preincubated for 30 mins followed by substrate addition and measured for 175 secs.

Regarding `CCCCCc1cn(-c2ccc(O)cc2)nn1`, the IC50 – broadly, the point on the concentration scale where inhibition reaches its midpoint – in data set [1] was determined as 10 µM. Moreover, the Ki (usually the equilibrium dissociation constant of an inhibitor or competing ligand from its target) in data set [2] amounted to 6.9 µM.
The corresponding values for `C#CCCCCc1cn(-c2ccc(O)cc2)nn1` are 9.5 µM and 6.5 µM.
The corresponding values for `Cc1ccc(C(=O)NCc2cn(-c3ccc(O)cc3)nn2)s1` are 28 µM and 19 µM.
The corresponding values for `O=C(NCc1cn(-c2ccc(O)cc2)nn1)c1ccccc1` are 33 µM and 23 µM.
On to `O=C(CCc1cn(-c2ccc(O)cc2)nn1)Nc1ccccc1`, for which the IC50 in data set [1] was 47 µM. For the same molecule, in data set [2], the Ki was found to be 32 µM.
In the case of `O=C(NCc1cn(-c2ccc(O)c(F)c2)nn1)c1cc2cc(Cl)ccc2[nH]1`, the solubility entry in data set [3] was “Insoluble”. Further, the thermodynamic solubility (as a rule, solubility found after equilibrating the solid with the medium) in data set [4] came out at 28 µM. Besides, the Ki in data set [2] was determined as 0.96 µM.
The molecule `Oc1ccc(-n2cc(-c3ccc4ccccc4n3)nn2)cc1` displayed a solubility (thermodynamic) in data set [4] of 2.2 µg/mL.
For the molecule `Oc1ccc(-n2cc(C3CCCCC3)nn2)cc1`, in data set [1], the 50% inhibitory concentration (IC50) came out at 26 µM. The inhibition constant Ki in data set [2] was 17 µM.
The corresponding values for `O=C(NCc1cn(-c2ccc(O)cc2)nn1)c1ccc[nH]1` are 43 µM and 30 µM.
The matching figures for `O=C(NCc1cn(-c2ccc(O)cc2)nn1)c1ccc(F)cc1`: 53 µM and 36 µM.
The corresponding values for `O=C(NCc1cn(-c2ccc(O)cc2)nn1)c1cc2ccccc2[nH]1` are 10 µM and 6.9 µM.
In turn, `O=C(NCc1cn(-c2ccc(O)c(F)c2)nn1)c1cc2ccccc2[nH]1` showed a thermodynamic solubility in data set [4] of 41.4 µM. For the same molecule, the IC50 in data set [1] was determined as 4.8 µM. Besides, the Ki in data set [2] was found to be 3.3 µM. The Kd (usually the concentration at which binding is half-saturated) in data set [5] is 3.63 µM.
With `Oc1ccc(-n2cc(-c3ccccn3)nn2)cc1`, the concentration for half-maximal inhibition (IC50) in data set [1] came to 7.2 µM. The inhibition constant (Ki) in data set [2] was found to be 5 µM; in data set [6], 2.9 µM; in data set [7], 8.8 µM.
For `COC(=O)CCCc1cn(-c2ccc(O)cc2)nn1`, the IC50 in data set [1] was 33 µM. Also, in data set [2], the Ki stood at 23 µM.
The corresponding values for `O=C(NCc1cn(-c2ccc(O)cc2)nn1)c1cccs1` are 41 µM and 28 µM.
The matching figures for `O=C(Cc1cc2ccccc2[nH]1)NCc1cn(-c2ccc(O)cc2)nn1`: 62 µM and 43 µM.
Regarding `O=C(NCc1cn(-c2ccc(O)cc2)nn1)c1ccc(Br)o1`, the IC50 in data set [1] worked out at 38 µM. In addition, in data set [2], the Ki came to 26 µM.

The values are drawn from ChEMBL document CHEMBL4715839, “Structure-activity relationships for binding of 4-substituted triazole-phenols to macrophage migration inhibitory factor (MIF)” (Eur J Med Chem, 2020).
